“Also recorded” adds a separate entry of the source.
Experiments:
[1] = tested on: intra-macrophage PA (XDR); test: 24 h intracellular infection model: intra-macrophage PA (XDR) in RAW 264.7 cells; type: cell-based, Pseudomonas aeruginosa; conditions: MOI 10, 3 μg/mL ciprofloxacin equivalent
Source text: FIGS. 5A-5C. […] Data shown reflect mean±SD of three replicates.
However, a critical gap exists in our general understanding of how macrophages respond physiologically to the thiol antioxidant inhibition strategy. Here, we will examine how the thiol antioxidant inhibition strategy (i.e., increased ROS levels) contributes to macrophages killing and intracellular persister cell death.

[2] = tested on: ciprofloxacin-induced persister cells from PA (XDR); test: Eradication of ciprofloxacin-induced persister cells from PA (XDR); type: cell-based, Pseudomonas aeruginosa; conditions: 3 μg/mL ciprofloxacin equivalent, 24 h in PBS; persisters generated with 600 μg/mL ciprofloxacin
Experimental: FIGS. 3A-3E. […] Data shown reflect mean±SD of three replicates.
After removing the drugs, the surviving bacteria were enumerated. […] The steady-state level of H2O2 inside the unstressed aerobic bacterial cell has been projected to be about 50 nM (47). […] The H2O2 level was quantified by measuring the area under the curve (AUC) (FIGS. 3B, 3C).

TNF-α = TNF-α secretion by RAW 264.7 cells; type: cell-based, murine; conditions: 2 μg/mL of ciprofloxacin
[3] = tested on: extensively drug-resistant (XDR) PA; test: Growth inhibition (MIC) of extensively drug-resistant PA; type: cell-based, Pseudomonas aeruginosa; conditions: for AuNC, concentration of ciprofloxacin within the AuNC
Source text: FIGS. 2A-2F. […] PA01 is sensitized (FIGS. 2A-2B). […]. […] Data shown reflect mean±SD of three replicates.
H2O2 contributes causatively to antibiotics lethality (48). H2O2 is generated as a downstream physiological consequence of antibiotics interacting with their traditional targets. […] Thus, the main challenge to reach lethal H2O2 levels in resistant bacteria is to design molecules that inhibit the antioxidant defense mechanisms. […].

With `O=C(O)c1cn(C2CC2)c2cc(N3CCNCC3)c(F)cc2c1=O` [ciprofloxacin] the “residual intra-macrophage bacteria (CFU), in words” value [1] was “fails; also recorded: no significant difference”, the “eradication of persister cells (in words)” value [2] was “fails; also recorded: survival persisters” and the “average TNF levels” value (TNF-α) was 53.75 ± 2 pg/mL. For the same compound, the “ciprofloxacin concentration that inhibits growth of PA (XDR)” value [3] was greater than 127.6 µg/mL.

Reference: patent US11998615B2, “Functionalized nanoparticles and their use in treating bacterial infections” (The Board of Trustees of the Leland Stanford Junior …, priority 2021, dated 2024)
